pKi: −log10 of the molar value. Counter-ions that a name gives are not always drawn.

One assay has as its system KK-A^y/JCL mice. As to the kind of experiment: Evaluation of antidiabetic action (blood glucose level). It is filed as in vivo. The following applies: dose 5.6 mg/100 g mixed in feed CRF-1, after one week of dosing. The source says:
Evaluation of Antidiabetic Action KK-A^y/JCL mice (male, 5- to 7-week-old, CLEA Japan, Inc.) known to spontaneously develop obese type 2 diabetes were purchased and, after one week of preliminary rearing period, grouped (6 per group) with the body weight and non-fasting blood glucose levels as indices. The animals were individually housed in a polycarbonate cage and allowed to drink water freely from a watering bottle. […] CRF-1 alone was given to the control group. After one week of dosing period, the blood (6 μL) was drawn from the tail vein of the animals, and the blood glucose level was measured by ACCU-CHEK Aviva (Roche Diagnostics K.K.). A significant difference from the control group was detected by Dunnett's multiple comparison test or Student's t-test (significance level less than 5%).
`CC(Cc1ccc(C(=O)Oc2ccc(C(=N)N)cc2)o1)C(=O)N[C@H](CC(=O)O)C(=O)O.O=C(O)C(F)(F)F` (stereo partly drawn) [A-28 hydrochloride]: the “Mean blood glucose level” value is given as 219 mg/dL.
Same read-out and setting: with `CC(Cc1ccc(C(=O)Oc2ccc(C(=N)N)cc2)s1)C(=O)N[C@@H](CC(=O)O)C(=O)O.O=C(O)C(F)(F)F` (stereo partly drawn) [B-18 hydrochloride] the figure was 217 mg/dL.
Still for that read-out and setting: next, `CC(Cc1ccc(C(=O)Oc2ccc(C(=N)N)cc2F)s1)C(=O)N[C@@H](CC(=O)O)C(=O)O.O=C(O)C(F)(F)F` (stereo partly drawn) [B-20 hydrochloride]: 197 mg/dL; `CC(Cc1ccc(C(=O)Oc2ccc(C(=N)N)cc2)s1)C(=O)N[C@H](CC(=O)O)C(=O)O.Cl` (stereo partly drawn) [B-23 hydrochloride]: 198 mg/dL.
With `N=C(N)c1ccc(OC(=O)c2ccc(CCC(=O)N[C@@H](CC(=O)O)C(=O)O)s2)c(F)c1.O=C(O)C(F)(F)F` [B-32 hydrochloride], the “Mean blood glucose level” value was 249 mg/dL.

Staying with this assay, now noted: dose 16.8 mg/100 g mixed in feed CRF-1, after one week of dosing.
`CC(Cc1ccc(C(=O)Oc2ccc(C(=N)N)cc2)s1)C(=O)N[C@@H](CC(=O)O)C(=O)O.O=C(O)C(F)(F)F` (stereo partly drawn) [B-18 hydrochloride]: the “Mean blood glucose level” value turned out to be 138 mg/dL.

Another assay deals with recombinant human enteropeptidase (Homo sapiens (Human), UniProt P98073). As to the kind of experiment: Measurement of enteropeptidase inhibitory activity. It counts as biochemical. The note with it: Dixon plot. The procedure: Measurement of Enteropeptidase Inhibitory Activity
Chain of recombinant human enteropeptidase (P98073 whole entry): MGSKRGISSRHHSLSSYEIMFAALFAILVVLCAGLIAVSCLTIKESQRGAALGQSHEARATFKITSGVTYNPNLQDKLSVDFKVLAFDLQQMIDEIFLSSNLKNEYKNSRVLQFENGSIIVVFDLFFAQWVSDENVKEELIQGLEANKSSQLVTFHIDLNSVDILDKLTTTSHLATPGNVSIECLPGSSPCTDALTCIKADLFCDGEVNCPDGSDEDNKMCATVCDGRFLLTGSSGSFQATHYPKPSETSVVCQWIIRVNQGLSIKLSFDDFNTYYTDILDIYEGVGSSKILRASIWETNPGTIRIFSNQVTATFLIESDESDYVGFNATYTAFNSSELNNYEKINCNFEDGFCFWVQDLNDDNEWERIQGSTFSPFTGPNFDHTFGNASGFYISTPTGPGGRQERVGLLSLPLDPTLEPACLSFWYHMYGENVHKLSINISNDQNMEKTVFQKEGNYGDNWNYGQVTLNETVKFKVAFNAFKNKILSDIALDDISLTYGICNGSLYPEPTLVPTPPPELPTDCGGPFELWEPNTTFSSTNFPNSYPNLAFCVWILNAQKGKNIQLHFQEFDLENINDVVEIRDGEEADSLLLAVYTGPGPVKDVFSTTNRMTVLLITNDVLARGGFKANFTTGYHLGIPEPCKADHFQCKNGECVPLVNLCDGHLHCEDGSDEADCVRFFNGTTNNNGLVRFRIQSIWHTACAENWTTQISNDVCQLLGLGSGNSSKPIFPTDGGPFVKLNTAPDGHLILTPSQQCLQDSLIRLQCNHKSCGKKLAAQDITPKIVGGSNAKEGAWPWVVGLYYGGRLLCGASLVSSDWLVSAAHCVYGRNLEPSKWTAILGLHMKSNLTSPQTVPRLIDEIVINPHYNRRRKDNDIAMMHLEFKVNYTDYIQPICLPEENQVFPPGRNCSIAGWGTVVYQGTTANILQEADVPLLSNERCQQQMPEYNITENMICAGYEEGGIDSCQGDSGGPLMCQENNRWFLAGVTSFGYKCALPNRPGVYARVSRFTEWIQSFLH
Using a 96 well plate (#3915, Costar), a test compound (25 μL), 400 mM Tris-HCl buffer (pH 8.0, 25 μL) and 0.5 mg/mL fluorescence enzyme substrate (Gly-Asp-Asp-Asp-Asp-Lys-β-Naphtylamide, 25 μL) were mixed, and recombinant human enteropeptidase (R&D Systems, Inc., 25 μL) was added. Using a fluorescence plate reader fmax (Molecular Devices, Inc.), the reaction rate was measured from the time-course changes at excitation wavelength 320 nm and fluorescence wavelength 405 nm. The Ki value was calculated from the concentration of the test compound, reciprocal of reaction rate, and Km value of the enzyme substrate, and by using Dixon plot.
Consider `CC(C)C[C@H](Cc1ccc(C(=O)Oc2ccc(C(=N)N)cc2F)s1)C(=O)N[C@@H](CC(=O)O)C(=O)O` [Compound B-26, N-{3-[5-(4-amidino-2-fluorophenoxycarbonyl)thiophen-2-yl]-2R-isobutylpropionyl}-L-aspartic acid trifluoroacetic acid salt], for which the negative logarithm of the Ki (pKi) was 8.66.
Same read-out and setting: with `CC(C)C[C@@H](Cc1ccc(C(=O)Oc2ccc(C(=N)N)cc2F)s1)C(=O)N[C@@H](CC(=O)O)C(=O)O` [Compound B-27] the figure was 9.02; with `CCC[C@H](Cc1ccc(C(=O)Oc2ccc(C(=N)N)cc2F)s1)C(=O)N[C@@H](CC(=O)O)C(=O)O` [Compound B-28], 8.96; with `CCC[C@@H](Cc1ccc(C(=O)Oc2ccc(C(=N)N)cc2F)s1)C(=O)N[C@@H](CC(=O)O)C(=O)O` [Compound B-29], 9.24.
As to `CC(Cc1ccc(C(=O)Oc2ccc(C(=N)N)c(F)c2)s1)C(=O)N[C@@H](CC(=O)O)C(=O)O` (stereo partly drawn) [Compound B-30], the negative-log Ki (pKi) is 9.28.
Same read-out and setting: with `N=C(N)c1ccc(OC(=O)c2ccc(CCC(=O)N[C@@H](CC(=O)O)C(=O)O)s2)c(F)c1` [Compound B-32, N-{3-[5-(4-amidino-2-fluorophenoxycarbonyl)thiophen-2-yl]propanoyl}-L-aspartic acid trifluoroacetic acid salt] the figure was 9.51.
Still for that read-out and setting: with `CCCC(Cc1ccc(C(=O)Oc2ccc(C(=N)N)cc2)s1)C(=O)N[C@@H](CC(=O)O)C(=O)O` (stereo partly drawn) [Compound B-33] the figure was 8.55.
On the same count and under the same terms, with `CC(Cc1ccc(C(=O)Oc2ccc(C(=N)N)cc2F)s1)C(=O)N1CCCC(C(=O)O)C1` (stereo not drawn) [Compound B-34] the figure was 8.66.
With `CC(Cc1ccc(C(=O)Oc2ccc(C(=N)N)cc2F)s1)C(=O)N[C@@H](CO)C(=O)O` (stereo partly drawn) [Compound B-35], the pKi is 9.40.
On to `N=C(N)c1ccc(OC(=O)c2ccc(CCC(=O)N[C@H](CC(=O)O)C(=O)O)s2)c(F)c1` [Compound B-36], for which the pKi is 9.29.
On to `N=C(N)c1ccc(OC(=O)c2ccc(CCC(=O)N(CCC(=O)O)CC(=O)O)s2)c(F)c1` [Compound B-37], for which the pKi is 9.30.
Still for that read-out and setting: with `C=CCN(CC(=O)O)C(=O)CCc1ccc(C(=O)Oc2ccc(C(=N)N)cc2F)s1` [Compound B-38, N-{3-[5-(4-amidino-2-fluorophenoxycarbonyl)thiophen-2-yl]propionyl}-N-allylglycine trifluoroacetic acid salt] the figure was 9.12; with `CC(Cc1ccc(C(=O)Oc2ccc(C(=N)N)cc2)s1)C(=O)N[C@@H](CS(=O)(=O)O)C(=O)O` (stereo partly drawn) [Compound B-39, N-{3-[5-(4-amidinophenoxycarbonyl)-thiophen-2-yl]-2-methylpropanoyl}-L-cysteic acid trifluoroacetic acid salt], 9.02; with `CC(Cc1ccc(C(=O)Oc2ccc(C(=N)N)cc2)s1)C(=O)NCP(=O)(O)O` (stereo not drawn) [Compound B-40, N-{3-[5-(4-amidinophenoxycarbonyl)-thiophen-2-yl]-2-methylpropanoyl}aminomethylphosphonic acid trifluoroacetic acid salt], 8.70.
With `CC(Cc1ccc(C(=O)Oc2ccc(C(=N)N)cc2F)s1)C(=O)N[C@@H](CS(=O)(=O)O)C(=O)O` (stereo partly drawn) [Compound B-41], the negative logarithm of the Ki (pKi) was 9.57.
With `CC(Cc1ccc(C(=O)Oc2ccc(C(=N)N)cc2F)s1)C(=O)NCP(=O)(O)O` (stereo not drawn) [Compound B-42], the negative logarithm of the Ki (pKi) is 9.43.
On to `CC(Cc1ccc(C(=O)Oc2ccc(C(=N)N)cc2Cl)s1)C(=O)NCP(=O)(O)O` (stereo not drawn) [Compound B-43], for which the negative-log Ki (pKi) is 9.38.
Consider `CC(Cc1ccc(C(=O)Oc2ccc(C(=N)N)cc2Cl)s1)C(=O)N[C@@H](CS(=O)(=O)O)C(=O)O` (stereo partly drawn) [Compound B-44], for which the negative logarithm of the Ki (pKi) was 9.68.
Still for that read-out and setting: next, `CC(CCC(=O)O)Cc1ccc(C(=O)Oc2ccc(C(=N)N)cc2)s1` (stereo not drawn) [Compound B-47]: 8.60; `CC(CCC(=O)O)Cc1ccc(C(=O)Oc2ccc(C(=N)N)cc2F)s1` (stereo not drawn) [Compound B-48]: 9.06.
Still for that read-out and setting: next, `CC(CCC(=O)N[C@@H](CC(=O)O)C(=O)O)Cc1ccc(C(=O)Oc2ccc(C(=N)N)cc2F)s1` (stereo partly drawn) [Compound B-49]: 9.39.
On the same count and under the same terms, next, `CC(CCC(=O)N[C@@H](CC(=O)O)C(=O)O)Cc1ccc(C(=O)Oc2ccc(C(=N)N)cc2)s1` (stereo partly drawn) [Compound B-50]: 9.05.
As to `CC(Cc1cc(C(=O)Oc2ccc(C(=N)N)cc2F)cs1)C(=O)O` (stereo not drawn) [Compound B-51, 3-[4-(4-amidino-2-fluorophenoxycarbonyl)thiophen-2-yl]-2-methylpropanoic acid trifluoroacetic acid salt], the pKi was 9.14.
`CC(Cc1cc(C(=O)Oc2ccc(C(=N)N)cc2F)cs1)C(=O)N[C@@H](CC(=O)O)C(=O)O` (stereo partly drawn) [Compound B-52]: the pKi is 9.41.
For `CC(Cc1cc(C(=O)Oc2ccc(C(=N)N)cc2)cs1)C(=O)N[C@@H](CC(=O)O)C(=O)O` (stereo partly drawn) [Compound B-53], the negative-log Ki (pKi) is 8.32.
For `N=C(N)c1ccc(OC(=O)c2csc(CCC(=O)N[C@@H](CC(=O)O)C(=O)O)c2)c(F)c1` [Compound B-54, N-{3-[4-(4-amidino-2-fluorophenoxycarbonyl)thiophen-2-yl]propanoyl}-L-aspartic acid trifluoroacetic acid salt], the pKi was 9.24.
Still for that read-out and setting: with `CC(Cc1csc(C(=O)Oc2ccc(C(=N)N)cc2)c1)C(=O)N[C@@H](CC(=O)O)C(=O)O` (stereo partly drawn) [Compound B-55] the figure was 9.01; with `N=C(N)c1ccc(OC(=O)c2ccc(-c3ccc(C(=O)N[C@@H](CC(=O)O)C(=O)O)cc3)s2)cc1` [Compound B-56], 8.02; with `N=C(N)c1ccc(OC(=O)c2ccc(-c3ccc(C(=O)N[C@@H](CC(=O)O)C(=O)O)cc3)s2)c(F)c1` [Compound B-57], 8.52.
Still for that read-out and setting: next, `N=C(N)c1ccc(OC(=O)c2ccc(-c3cccc(C(=O)N[C@@H](CC(=O)O)C(=O)O)c3)s2)cc1` [Compound B-58]: 8.01; `N=C(N)c1ccc(OC(=O)c2ccc(-c3ccc(C(=O)N[C@@H](CC(=O)O)C(=O)O)s3)s2)cc1` [Compound B-59, N-{5-[5-(4-amidinophenoxycarbonyl)-thiophen-2-yl]thiophen-2-ylcarbonyl}-L-aspartic acid trifluoroacetic acid salt]: 8.09.
Still for that read-out and setting: next, `N=C(N)c1ccc(OC(=O)c2ccc(CC(=O)N[C@@H](CC(=O)O)C(=O)O)s2)c(F)c1` [Compound B-60, N-[5-(4-amidino-2-fluorophenoxycarbonyl)thiophen-2-ylacetyl]-L-aspartic acid trifluoroacetic acid salt]: 9.19; `Cc1cc(C(=O)Oc2ccc(C(=N)N)cc2F)sc1CCC(=O)N[C@@H](CC(=O)O)C(=O)O` [Compound B-61, N-{3-[5-(4-amidino-2-fluorophenoxycarbonyl)-3-methylthiophen-2-yl]propanoyl}-L-aspartic acid trifluoroacetic acid salt]: 9.89.
On to `N=C(N)c1ccc(OC(=O)c2ccc(CCC(=O)N[C@@H](CCC(=O)O)C(=O)O)s2)c(F)c1` [Compound B-62], for which the pKi was 9.24.
As for `C=CCN(C(=O)CCc1ccc(C(=O)Oc2ccc(C(=N)N)cc2F)s1)[C@@H](CC(=O)O)C(=O)O` [Compound B-63, N-{3-[5-(4-amidino-2-fluorophenoxycarbonyl)thiophen-2-yl]propanoyl}-N-allyl-L-aspartic acid trifluoroacetic acid salt], the pKi was 9.26.
In the case of `CC(C)(Cc1ccc(C(=O)Oc2ccc(C(=N)N)cc2F)s1)C(=O)N[C@@H](CC(=O)O)C(=O)O` [Compound B-64, N-{3-[5-(4-amidino-2-fluorophenoxycarbonyl)thiophen-2-yl]-2,2-dimethylpropanoyl}-L-aspartic acid trifluoroacetic acid salt], the negative logarithm of the Ki (pKi) was 9.85.
On the same count and under the same terms, next, `N=C(N)c1ccc(OC(=O)c2ccc(CCC(=O)N[C@@H](Cc3ccc(O)cc3)C(=O)O)s2)c(F)c1` [Compound B-65]: 8.49; `N=C(N)c1ccc(OC(=O)c2ccc(CCC(=O)N[C@@H](CO)C(=O)O)s2)c(F)c1` [Compound B-66]: 9.14.
As for `C/C(=C\c1nc(C(=O)Oc2ccc(C(=N)N)cc2)cs1)C(=O)N(CCCO)CC(=O)O` [Compound C-2], the pKi was 8.25.

(Values after US8609715B2, “Heteroarylcarboxylic acid ester derivative” (Ajinomoto Co., Inc., priority 2009, dated 2013).)
